Assays:
[1] = tested on: colorectal cancer cell lines COL0205 and HCT116 resistant to PD184352; test: Growth of CI-1040 (PD184352)-resistant cancerous cells co-incubated daily with platelets (Example 2); type: cell-based; details: serum-free, platelets 30 minutes each day; for fate of cell population incubated with MEK inhibitor and PPS or DXS: in the presence of CI-1040 (PD184352)
Procedure: (§1) Three populations of cells are cultivated in the presence of the inhibitor under serum-free conditions.
(§2) For a first population of the cells PPS is added to the cell culture dishes, while for a second population, i.e. the control cells, no PPS is added.
(§3) For a third population of the cells DXS is added to the cell culture dishes.
(§4) Each day all cell populations are co-incubated with platelets for 30 minutes, which are subsequently washed away.
The second experiment is performed as described for Example 1 except that cells are cultivated in the presence of the MEK inhibitor CI-1040 (PD184352).
As described in Little et al. 2011 in detail cancerous cells that have developed a resistance against the MEK inhibitor PD184352 are generated by growing colorectal cancer cell lines harboring mutations in BRAF (COL0205) or KRAS (HCT116) in the presence of increasing concentrations of […] without clonal selection until they grow apparently normally in 1 μm, 2 μM or […].
For each of the cancerous cells lines that have developed a resistance against the MEK inhibitor CI-1040 (PD184352) the cultivation steps as in Example 1 are performed, except that the cells are cultivated in the presence of the MEK inhibitor CI-1040 (PD184352).

[2] = tested on: melanoma cell line A375 resistant to dabrafenib; test: Growth of dabrafenib-resistant cancerous cells co-incubated daily with platelets (Example 6); type: cell-based, human; details: serum-free, platelets 30 minutes each day; for fate of cell population incubated with Raf inhibitor and PPS or DXS: in the presence of dabrafenib
Procedure: as §1, §2, §3, §4
The sixth experiment is performed as described for Example 1 except that cells that have developed a resistance against the Raf inhibitor dabrafenib are used and cultivated in the presence of the Raf inhibitor dabrafenib.
As described in Caparorali et al. 2011 in detail cancerous cells that have developed a resistance against the Raf inhibitor dabrafenib are generated by growing the human melanoma cell line A375 in gradually increasing concentrations of dabrafenib (from 1 nM up to 1.5 μM) over a period of 4 months and subsequently maintaining the dabrafenib-resistance cell lines in CM supplemented with 1.5 μM dabrafenib.
For each of the cancerous cells lines that have developed a resistance against the Raf inhibitor dabrafenib the cultivation steps as in Example 1 are performed, except that the cells are cultivated in the presence of the Raf inhibitor dabrafenib.

[3] = tested on: Hepatocellular carcinoma (HCC) Huh7 cells resistant to sorafenib; test: Growth of sorafenib-resistant cancerous cells co-incubated daily with platelets (Example 5); type: cell-based, human; details: serum-free, platelets 30 minutes each day; for fate of cell population incubated with Raf inhibitor and PPS or DXS: in the presence of sorafenib
Procedure: as §1, §2, §3, §4
The fifth experiment is performed as described for Example 1 except that cells that have developed a resistance against the Raf inhibitor sorafenib are used and cultivated in the presence of the Raf inhibitor sorafenib.
As described in Chen et al. 2011 in detail cancerous cells that have developed a resistance against the Raf inhibitor sorafenib are generated by growing the human Hepatocellular carcinoma (HCC) Huh7 in a long term exposure to sorafenib.
For each of the cancerous cells lines that have developed a resistance against the Raf inhibitor sorafenib the cultivation steps as in Example 1 are performed, except that the cells are cultivated in the presence of the Raf inhibitor sorafenib.

[4] = tested on: cancerous cells resistant against an RTK inhibitor; test: Growth of RTK inhibitor-resistant cancerous cells co-incubated daily with platelets (Example 7); type: cell-based; details: in the presence of the RTK inhibitor, serum-free, platelets 30 minutes each day
Procedure: as §1, §2, §3, §4
The seventh experiment is performed as described for Example 1, except that the cancerous cells are resistant against an RTK inhibitor and the three populations of cells are cultivated in the presence of the RTK inhibitor.

[5] = tested on: NRAS mutant melanoma cell lines DO4 and MM415 resistant to trametinib; test: Growth of trametinib-resistant cancerous cells co-incubated daily with platelets (Example 3); type: cell-based, Human; details: in the presence of trametinib, serum-free, platelets 30 minutes each day
Procedure: as §1, §2, §3, §4
The third experiment is performed as described for Example 1 except that cells that have developed a resistance against the MEK inhibitor trametinib (GSK1120212) are used and cultivated in the presence of the MEK inhibitor trametinib.
As described in Vujic et al. 2014 in detail cancerous cells that have developed a resistance against the MEK inhibitor trametinib are generated by growing Human NRAS mutant melanoma cell lines DO4 and MM415 in the presence of increased concentrations of trametinib (GSK1120212) over a period of approximately 6 months.
For each of the cancerous cell lines that have developed a resistance against the MEK inhibitor trametinib the cultivation steps as in Example 1 are performed, except that the cells are cultivated in the presence of the MEK inhibitor trametinib.

[6] = tested on: melanoma cell line SK-MEL-28 (BRAF V600E) resistant to vemurafenib; test: Growth of vemurafenib-resistant cancerous cells co-incubated daily with platelets (Example 4); type: cell-based; details: in the presence of vemurafenib, serum-free, platelets 30 minutes each day
Procedure: as §1, §2, §3, §4

[7] = tested on: colorectal cancer cell lines COL0205, HT29, HCT116 and LoVo resistant to Selumetinib; test: Growth of Selumetinib-resistant cancerous cells co-incubated daily with platelets (Example 1); type: cell-based; details: in the presence of Selumetinib, serum-free, platelets 30 minutes each day
Procedure: The experiment is performed on cancerous cells that have developed a resistance against the MEK inhibitor Selumetinib. As described in Little et al. 2011 in detail cancerous cells that have developed a resistance against the MEK inhibitor Selumetinib are generated by growing colorectal cancer cell lines harboring mutations in BRAF (COL0205 and HT29 lines) or KRAS (HCT116 and LoVo lines) in the presence of increasing concentrations of AZD6244 (Selumetinib) without clonal selection until they grow apparently normally in 1 μm, 2 μM or 4 μM of the drug.
For each of the cancerous cells lines that have developed a resistance against the MEK inhibitor Selumetinib the following steps are performed:
as §1, §2, §3, §4
Control cells in the growth cycle express platelet receptors on their surface. Platelets adhere to the control cells and release growth factors from their alpha granules. The control cells will take up the factors and proceed through the cell cycle, even in the presence of the MEK inhibitor.

[8] = fraction of Heparin's activity; cited from earlier work

Compound	fate of cell population incubated with MEK inhibitor and PPS or DXS [1]	fate of cell population incubated with RTK inhibitor and PPS or DXS [4]	fate of cell population incubated with Raf inhibitor and PPS or DXS [3]	fate of cell population incubated with MEK inhibitor and PPS or DXS [5]	fate of cell population incubated with Raf inhibitor and PPS or DXS [2]	fate of cell population incubated with Raf inhibitor and PPS or DXS [6]	adherence of platelets to the cancerous cells [7]	fate of cell population incubated with MEK inhibitor and PPS or DXS [7]	other results
O=C(NOCC1CC1)c1ccc(F)c(F)c1Nc1ccc(I)cc1Cl [CI-1040]	–	–	–	–	–	–	–	–	growth of control cells with MEK inhibitor alone (no PPS/DXS) ([1]; CI-1040 (PD184352) alone): continue to grow and divide
CC(C)(C)c1nc(-c2cccc(NS(=O)(=O)c3c(F)cccc3F)c2F)c(-c2ccnc(N)n2)s1 [dabrafenib]	–	–	–	–	–	–	–	–	growth of control cells with Raf inhibitor alone (no PPS/DXS) ([2]; dabrafenib alone): continue to grow and divide
CNC(=O)c1cc(Oc2ccc(NC(=O)Nc3ccc(Cl)c(C(F)(F)F)c3)cc2)ccn1 [sorafenib]	–	–	–	–	–	–	–	–	growth of control cells with Raf inhibitor alone (no PPS/DXS) ([3]; sorafenib alone): continue to grow and divide
Dextran sulfate [DXS]	perish	perish	perish	perish	perish	perish	prevents the platelet from adhering to the cancerous cells	perish	–
Pentosan polysulfate [PPS]	perish	perish	perish	perish	perish	perish	prevents the platelet from adhering to the cancerous cells	perish	anticoagulant activity relative to that of Heparin [8]: 1/15

Reference: US11559544B2, “Combination of a MAPK/ERK pathway inhibitor and a glycosaminoglycan for the treatment of cancer” (CELL RECEPTOR AG, priority 2017, dated 2023)
